Experimental data published in patent US20190203240A1, “METHODS FOR THE PRODUCTION OF RHAMNOSYLATED FLAVONOIDS” (Universitaet Hamburg, priority 2016, published 2019).
Values joined by “and” are separate entries in the source; they are usually repeats but may differ in a detail not shown here. Equal entries are not always repeated.

Key:
[1] = test system: normal human epidermal keratinocytes (NHEK); assay: Cytotoxicity on NHEK monolayer (MTT reduction assay and morphological observation); assay type: cell-based; conditions: MTT; for Viability (%): single values, listed as Nar-5-Rha
Experimental: To determine the cytotoxicity of flavonoid-5-O-α-L-rhamnosides tests were performed versus their aglycon derivatives in cell monolayer cultures. For this purpose concentrations ranging from 1 μM to 250 μM were chosen. The viability of normal human epidermal keratinocytes (NHEK) was twice evaluated by a MTT reduction assay and morphological observation with a microscope. NHEK were grown at 37° C. and 5% CO2 aeration in Keratinocyte-SFM medium supplemented with epidermal growth factor (EGF) at 0.25 ng/mL, pituitary extract (PE) at 25 μg/mL and gentamycin (25 μg/mL) for 24 h and were used at the 3rd passage. For cytotoxicity testing, pre-incubated NHEK were given fresh culture medium containing a specific concentration of test compound and incubated for 24 h. After a medium change at same test concentration cells were incubated a further 24 h until viability was determined. Test results are given in Table B2 and illustrated in FIG. 10.

PGE2 = assay: Anti-inflammatory potential: secreted PGE2 in stimulated NHEK (ELISA); assay type: cell-based, human; conditions: PMA stimulation, 100 μM
Experimental: (§1) NHEK were pre-incubated for 24 h with the test compounds. The medium was replaced with the NHEK culture medium containing the inflammatory inducers (PMA or Poly I:C) and incubated for another 24 hours. Positive and negative controls ran in parallel. At the endpoint the culture supernatants were quantified of secreted IL-8, PGE2 and TNF-α, by means of ELISA.

TNF-α = assay: Anti-inflammatory potential: secreted TNF-α in stimulated NHEK (ELISA); assay type: cell-based, human; conditions: poly(I:C) stimulation, 100 μM
Experimental: as §1

[2] = test system: lipid peroxides (C11-fluor) in NHEK cells; assay: Protection against UV-induced lipid peroxide in NHEK (C11-fluor probe, flow cytometry); assay type: cell-based, human
Experimental: Pre-incubated NHEK were incubated with the test compound for 24 h. Then the specific fluorescence probe for the measurement of hydrogen peroxide (DHR) or lipid peroxides (C11-fluor) was added and incubated for 45 min. Irradiation occurred with in H2O2 determination UVB at 180 mJ/cm^2 (+UVA at 2839 mJ/cm^2) or UVB at 240 mJ/cm^2 (+UVA at 3538 mJ/cm^2) in lipid peroxide, respectively, using a SOL500 Sun Simulator lamp. After irradiation the cells were post-incubated for 30 min before flow-cytometry analysis.

procollagen I = assay: Stimulation of procollagen I synthesis in NHDF (ELISA); assay type: cell-based, human; conditions: 72 hours, 100 μM
Experimental: (§2) Tests were performed with normal human dermal fibroblast cultures at the 8th passage. Cells were grown in DMEM supplemented with glutamine at 2 mM, penicillin at 50 U/mL and streptomycin (50 μg/mL) and 10% of fetal calf serum (FCS) at 37° C. in a 5% CO2 atmosphere.
(§3) Fibroblasts were cultured for 24 hours before the cells were incubated with the test compounds for further 72 hours. After the incubation the culture supernatants were collected in order to measure the released quantities of procollagen I, VEGF, and fibronectin by means of ELISA. Reference test compounds were vitamin C (procollagen I), PMA (VEGF), and TGF-β (fibronectin).

VEGF = assay: Stimulation of VEGF release in NHDF (ELISA); assay type: cell-based, human; conditions: 72 hours, 100 μM
Experimental: as §2, §3

fibronectin = assay: Stimulation of fibronectin synthesis in NHDF (ELISA); assay type: cell-based, human; conditions: 100 μM
Experimental: as §2, §3

[3] = test system: matrix metallopeptidase 1 (MMP-1); assay: MMP-1 release in UVA-irradiated NHDF (ELISA); assay type: cell-based, human
Experimental: as §2
Human fibroblasts were cultured for 24 hours before the cells were pre-incubated with the test or reference compounds (dexamethasone) for another 24 hours. The medium was replaced by the irradiation medium (EBSS, CaCl2) 0.264 g/L, MgClSO4 0.2 g/L) containing the test compounds) and cells were irradiated with UVA (15 J/cm^2). The irradiation medium was replaced by culture medium including again the test compounds incubated for 48 hours. After incubation the quantity of matrix metallopeptidase 1 (MMP-1) in the culture supernatant was measured using an ELISA kit.

HaCaT cells = assay: Glucose uptake (2-NBDG) in HaCaT keratinocytes; assay type: cell-based; conditions: +2NBDG 50 μM, 24 h
Experimental: HaCaT cells (5×10^4) were seeded in 96-well black plates and incubated for 24 h. Then, medium was removed and the cells cultivated in OptiMEM, labeled with 50 μM 2-NBDG (2-[N-(7-nitrobenz-2-oxa-1,3-diazol-4-yl) amino]-2-deoxy-D-glucose and treated with the test substances or the positive control, Rosiglitazone, for 24 h. Medium was removed and the wells were carefully washed with PBS and incubated in PBS (100 μl/well). Finally the fluorescence was measured using the Incucyte FLR software, the data were analyzed by the total green object integrated intensity (GCU×μm2×Well) of the imaging system IncuCyte HD (Essen BioScience). The fluorescence of Rosiglitazone is taken as 100% of glucose uptake, and the glucose uptake was calculated as (% Glucose uptake)=100(T−B)/(R−B), where T (treated) is the fluorescence of test substance-treated cells, B (Basal) is the fluorescence of 2-NBDG cells and […] is the fluorescence of cells treated with Rosiglitazone.

[4] = 240 mJ/cm^2 UVB (3538 mJ/cm^2 UVA), 100 μM
[5] = 240 mJ/cm^2 UVB (3538 mJ/cm^2 UVA), 100 μM, single values
[6] = NHDF irradiated 15 J/cm^2 UVA, 100 μM

## C[C@@H]1O[C@@H](Oc2cc(O)cc3c2C(=O)CC(c2ccc(O)cc2)O3)[C@H](O)[C@H](O)[C@H]1O (mixture of isomers) [NR1, Naringenin-5-O-α-L-rhamnoside]
[1]; 1 μM
  Viability (%) Mean: 101%
  Viability (%): 91% and 111%
[1]; 2.5 μM
  Viability (%) Mean: 93%
  Viability (%): 92% and 93%
[1]; 5 μM
  Viability (%) Mean: 86%
  Viability (%): 85% and 88%
[1]; 10 μM
  Viability (%) Mean: 97%
  Viability (%): 94% and 100%
[1]; 25 μM
  Viability (%) Mean: 95%
  Viability (%): 92% and 98%
[1]; 50 μM
  Viability (%) Mean: 84%
  Viability (%): 78% and 91%
[1]; 100 μM
  Viability (%) Mean: 86%
  Viability (%): 82% and 90%
[1]; 250 μM
  Viability (%) Mean: 83%
  Viability (%): 79% and 87%
PGE2
  Cytokine [pg/mL] PGE2 Mean: 1271 pg/mL
  PGE2 % stim. control: 81%
PGE2; single values
  Cytokine [pg/mL] PGE2: 851 pg/mL and 1691 pg/mL
TNF-α
  Cytokine [pg/mL] TNFα Mean: 516 pg/mL
  TNFα % stim. control: 92%
TNF-α; single values
  Cytokine [pg/mL] TNFα: 516 pg/mL
[2]; [4]
  C11-fluor (AU) Mean (1/GMFI): 4.3E−04 AU
  lipid peroxide % Irradiated control: 93%
  lipid peroxide Protection %: 9%
[2]; [5]
  C11-fluor (AU) 1/GMFI: 4.1E−04 AU and 4.4E−04 AU
  C11-fluor (AU) GMFI: 2414 AU and 2255 AU
[2]; UV irradiation
  anti-oxidative function on lipid peroxides: anti-oxidative function
Procollagen I
  Procollagen I % Control: 66%
  Procollagen I % Stimulation: −34%
  Procollagen I Mean: 1097 ng/mL
Procollagen I; single values
  Procollagen I: 1334 ng/mL and 860 ng/mL
VEGF
  Mean VEGF: 92 pg/mL
  VEGF % Control: 128%
VEGF; single values
  VEGF: 90 pg/mL and 94 pg/mL
fibronectin
  fibronectin synthesis increase: 20%
fibronectin; 72 h incubation
  Fibronectin % Control: 120%
  Fibronectin % Stimulation: 20%
  Fibronectin (ng/ml), single replicates: 6833 ng/mL and 7820 ng/mL
  Fibronectin Mean: 7326 ng/mL
[3]; [6]
  MMP-1 % Irradiated control: 338%
  MMP-1 % Protection: −372%
  MMP-1 (ng/ml), single replicates: 211.7 ng/mL and 268.8 ng/mL
  Mean MMP-1: 240.3 ng/mL
[3]; NHDF, UV-irradiated conditions
  upregulation of MMP-1 biosynthesis: ~4 fold
HaCaT cells; 25 μM
  % Glucose uptake (Rosiglitazone = 100%): 87.7%
  Mean (fluorescence): 768005
  Measure 1 (fluorescence): 493970
  Measure 2 (fluorescence): 1160754
  Measure 3 (fluorescence): 649291
  RFU specific: 761691 RFU
HaCaT cells; 50 μM
  % Glucose uptake (Rosiglitazone = 100%): 29.6%
  Mean (fluorescence): 263881
  Measure 1 (fluorescence): 278134
  Measure 2 (fluorescence): 256310
  Measure 3 (fluorescence): 257198
  RFU specific: 257567 RFU
